Assay results reported in US20230416248A1, “COMPOUNDS AND USES THEREOF” (Foghorn Therapeutics Inc., priority 2020, published 2023).
pIC50: −log10 of the molar value.

Experiments:
BRM = biological target: T1, BRM (Homo sapiens, UniProt P51531); assay: ATPase catalytic activity of BRM, ADP-Glo in vitro biochemical assay; conditions: for pIC50: ADP-Glo ATPase assay, 30 nM BRM, 400 μM ATP; for Ratio*: ratio BRG1 IC50 / BRM IC50
T1 construct: made in house; host or cells: High Five insect cells
Outline: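 Recombinant BRM (30 nM) hydrolysed 400 μM ATP with 20 nM salmon sperm DNA in pH 8 Tris buffer containing 20 mM MgCl2, 50 mM NaCl, 0.1% Tween-20 and 1 mM DTT, 1 h at room temperature. ADP formed was quantified by ADP-Glo luminescence.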

BRG-1 = biological target: T2, BRG-1 (Homo sapiens, UniProt P51532); assay: ATPase catalytic activity of BRG-1, ADP-Glo in vitro biochemical assay; conditions: ADP-Glo ATPase assay, 30 nM BRG-1, 400 μM ATP; read-out: BRG1 IC50
T2 construct: made in house; host or cells: High Five insect cells
T2 sequence (P51532 whole entry): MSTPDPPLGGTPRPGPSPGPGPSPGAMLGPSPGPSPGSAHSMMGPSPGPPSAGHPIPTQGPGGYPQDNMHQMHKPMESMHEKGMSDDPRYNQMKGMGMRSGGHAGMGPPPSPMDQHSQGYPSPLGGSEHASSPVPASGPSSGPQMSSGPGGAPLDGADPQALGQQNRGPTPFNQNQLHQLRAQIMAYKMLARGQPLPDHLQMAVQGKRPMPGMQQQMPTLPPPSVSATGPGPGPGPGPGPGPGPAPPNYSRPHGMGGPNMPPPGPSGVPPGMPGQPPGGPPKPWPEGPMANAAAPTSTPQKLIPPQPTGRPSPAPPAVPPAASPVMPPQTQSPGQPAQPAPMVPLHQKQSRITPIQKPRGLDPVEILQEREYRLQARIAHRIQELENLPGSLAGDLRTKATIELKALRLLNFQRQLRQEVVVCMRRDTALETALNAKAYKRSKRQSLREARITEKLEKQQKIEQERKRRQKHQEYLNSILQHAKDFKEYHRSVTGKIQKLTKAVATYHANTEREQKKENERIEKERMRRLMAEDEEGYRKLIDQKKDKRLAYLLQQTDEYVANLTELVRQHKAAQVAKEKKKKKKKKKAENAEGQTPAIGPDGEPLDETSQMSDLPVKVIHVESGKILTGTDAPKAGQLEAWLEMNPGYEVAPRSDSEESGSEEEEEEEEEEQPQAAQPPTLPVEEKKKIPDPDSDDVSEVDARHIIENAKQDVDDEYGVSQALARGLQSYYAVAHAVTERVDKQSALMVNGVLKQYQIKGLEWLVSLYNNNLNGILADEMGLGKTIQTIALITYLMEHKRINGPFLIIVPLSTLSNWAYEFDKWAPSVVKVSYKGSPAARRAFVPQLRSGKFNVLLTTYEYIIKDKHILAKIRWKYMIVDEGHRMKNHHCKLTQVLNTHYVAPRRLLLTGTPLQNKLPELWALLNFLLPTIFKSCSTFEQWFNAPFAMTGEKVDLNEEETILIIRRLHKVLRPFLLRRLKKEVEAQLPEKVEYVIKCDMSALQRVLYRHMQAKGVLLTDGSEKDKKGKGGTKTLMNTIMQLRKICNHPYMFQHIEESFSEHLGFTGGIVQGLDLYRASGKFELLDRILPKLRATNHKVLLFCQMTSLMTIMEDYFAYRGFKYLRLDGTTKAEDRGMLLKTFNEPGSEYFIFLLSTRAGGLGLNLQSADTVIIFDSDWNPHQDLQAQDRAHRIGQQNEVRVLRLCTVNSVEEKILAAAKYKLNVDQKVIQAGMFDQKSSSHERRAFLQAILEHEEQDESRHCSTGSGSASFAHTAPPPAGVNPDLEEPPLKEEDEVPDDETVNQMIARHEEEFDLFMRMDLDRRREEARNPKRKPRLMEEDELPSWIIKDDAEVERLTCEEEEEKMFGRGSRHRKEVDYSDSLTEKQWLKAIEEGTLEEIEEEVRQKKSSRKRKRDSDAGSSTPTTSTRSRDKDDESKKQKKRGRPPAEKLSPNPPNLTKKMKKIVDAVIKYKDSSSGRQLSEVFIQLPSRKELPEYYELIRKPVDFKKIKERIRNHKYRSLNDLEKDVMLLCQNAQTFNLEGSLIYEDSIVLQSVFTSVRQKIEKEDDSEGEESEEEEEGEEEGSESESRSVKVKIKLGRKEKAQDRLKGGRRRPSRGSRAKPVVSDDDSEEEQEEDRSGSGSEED
Outline: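 BRG-1 ATPase activity was measured in vitro by ADP-Glo. After the reaction, ADP-Glo Reagent depleted unconsumed ATP (40 min, room temperature), then Kinase Detection Reagent converted product ADP to ATP (60 min, room temperature), and luciferase luminescence was read.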

T1 sequence (P51531 whole entry): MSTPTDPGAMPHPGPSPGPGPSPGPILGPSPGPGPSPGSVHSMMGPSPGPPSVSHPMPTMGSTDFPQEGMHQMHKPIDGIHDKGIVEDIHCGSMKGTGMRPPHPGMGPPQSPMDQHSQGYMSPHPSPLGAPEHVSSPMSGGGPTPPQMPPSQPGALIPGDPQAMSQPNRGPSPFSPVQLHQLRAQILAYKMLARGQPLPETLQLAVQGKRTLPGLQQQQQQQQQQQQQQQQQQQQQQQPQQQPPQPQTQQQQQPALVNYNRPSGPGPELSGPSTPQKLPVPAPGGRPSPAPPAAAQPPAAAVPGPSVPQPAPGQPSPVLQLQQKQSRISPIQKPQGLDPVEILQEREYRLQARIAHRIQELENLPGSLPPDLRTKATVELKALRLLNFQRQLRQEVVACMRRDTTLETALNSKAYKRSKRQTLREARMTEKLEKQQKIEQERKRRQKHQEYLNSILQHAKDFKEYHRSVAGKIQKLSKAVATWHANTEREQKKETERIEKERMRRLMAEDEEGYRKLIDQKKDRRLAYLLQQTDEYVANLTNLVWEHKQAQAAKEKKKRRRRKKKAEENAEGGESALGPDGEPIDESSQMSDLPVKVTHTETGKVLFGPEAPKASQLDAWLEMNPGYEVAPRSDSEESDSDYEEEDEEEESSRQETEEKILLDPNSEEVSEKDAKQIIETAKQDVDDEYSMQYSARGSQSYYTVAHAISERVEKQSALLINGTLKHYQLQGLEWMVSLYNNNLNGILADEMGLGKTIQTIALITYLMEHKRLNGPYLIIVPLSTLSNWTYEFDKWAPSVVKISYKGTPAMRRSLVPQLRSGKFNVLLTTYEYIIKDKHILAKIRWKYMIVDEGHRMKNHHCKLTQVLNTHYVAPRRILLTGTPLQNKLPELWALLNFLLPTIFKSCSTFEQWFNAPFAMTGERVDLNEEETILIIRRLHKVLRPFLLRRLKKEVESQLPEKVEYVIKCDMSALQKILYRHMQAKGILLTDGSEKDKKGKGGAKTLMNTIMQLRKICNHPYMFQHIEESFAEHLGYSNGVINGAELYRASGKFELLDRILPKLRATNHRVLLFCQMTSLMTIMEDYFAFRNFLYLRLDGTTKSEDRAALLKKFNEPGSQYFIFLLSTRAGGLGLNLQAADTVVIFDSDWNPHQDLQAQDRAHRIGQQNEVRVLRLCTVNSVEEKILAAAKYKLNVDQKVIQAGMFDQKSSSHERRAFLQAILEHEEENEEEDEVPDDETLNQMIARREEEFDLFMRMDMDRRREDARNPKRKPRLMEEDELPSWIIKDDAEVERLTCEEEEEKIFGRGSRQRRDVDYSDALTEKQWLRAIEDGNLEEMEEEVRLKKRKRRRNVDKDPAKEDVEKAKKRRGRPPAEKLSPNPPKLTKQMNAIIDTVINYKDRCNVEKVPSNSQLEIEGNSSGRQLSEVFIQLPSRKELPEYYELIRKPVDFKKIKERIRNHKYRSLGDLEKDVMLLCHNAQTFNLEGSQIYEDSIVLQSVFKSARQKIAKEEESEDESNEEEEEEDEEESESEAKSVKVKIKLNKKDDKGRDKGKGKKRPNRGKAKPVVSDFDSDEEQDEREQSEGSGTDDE

Row | Structure (SMILES) | pIC50 (BRM) | Ratio* (BRM) | pIC50 (BRG-1)
1 | CS(=O)(=O)c1cc(C(=O)NCc2cc3nc(N4CCCc5cc(C6CC6)cnc54)ccc3cn2)cnc1C(F)F [Compound 724] | 6.91 | 18.41 | 5.65
2 | O=C(NCc1cc2nc(N3CCCc4cc(C5CC5)ncc43)ccc2cn1)c1ccc2c(c1)S(=O)(=O)CCOC2 [Compound 725] | 7.57 | 10.95 | 6.53
3 | O=C(NCc1cc2nc(N3CCCc4cc(F)c(OCC5COC5)cc43)ccc2cn1)c1ccc2c(c1)S(=O)(=O)CCOC2 [Compound 726] | 7.61 | 11.83 | 6.53
4 | O=C(NCc1cc2nc(N3CCc4cc(F)cnc43)ccc2cn1)c1ccc2c(c1)S(=O)(=O)CCOC2 [Compound 727] | 6.99 | 11.84 | 5.91
5 | O=C(NCc1cc2cc(N3CCOc4ccc(C5CC5)nc43)ccc2cn1)c1ccc2c(c1)S(=O)(=O)CCOC2 [Compound 729] | 7.35 | 42.98 | 5.72
6 | O=C(NCc1cc2nc(N3CCCc4cccc(Cl)c43)ccc2cn1)c1ccc2c(c1)S(=O)(=O)CCOC2 [Compound 736] | 5.94 | 3.42 | 5.41
7 | O=C(NCc1cc2nc(N3CCN(CC(F)F)c4cccnc43)ccc2cn1)c1ccc2c(c1)S(=O)(=O)CCOC2 [Compound 742] | 7.62 | 19.92 | 6.32
8 | Cc1ccnc2c1CCN2c1ccc2cnc(CNC(=O)c3ccc4c(c3)S(=O)(=O)CCOC4)cc2n1 [Compound 743] | 7.56 | 4.35 | 6.92
9 | O=C(NCc1cc2nc(N3CCn4ncc(C5CC5)c4C3)ccc2cn1)c1ccc2c(c1)S(=O)(=O)CCOC2 [Compound 744] | 6.36 | 9.13 | 5.40
10 | O=C(NCc1cc2nc(N3CCCc4ccc(OC5CC5)nc43)ccc2cn1)c1ccc2c(c1)S(=O)(=O)CCOC2 [Compound 746] | 7.65 | 25.51 | 6.25
11 | O=C(NCc1cc2nc(N3CCOc4cc(F)c(C5CC5)nc43)ccc2cn1)c1ccc2c(c1)S(=O)(=O)CCOC2 [Compound 751] | 7.44 | 63.48 | 5.64
12 | CC1(C)CCN(c2ccc3cnc(CNC(=O)c4ccc5c(c4)S(=O)(=O)CCOC5)cc3n2)c2ncccc21 [Compound 752] | 5.98 | 3.68 | 5.42
13 | O=C(NCc1cc2nc(N3CCOc4cc(N5CCCC5)cnc43)ccc2cn1)c1ccc2c(c1)S(=O)(=O)CCOC2 [Compound 754] | 7.72 | 10.04 | 6.72
14 | O=C(NCc1cc2nc(N3CCOc4cc(N5CCC(F)(F)C5)cnc43)ccc2cn1)c1ccc2c(c1)S(=O)(=O)CCOC2 [Compound 758] | 7.45 | 14.23 | 6.30
15 | O=C(NCc1cc2nc(N3CCOc4cc(C5CC5)cc(F)c43)ccc2cn1)c1ccc2c(c1)S(=O)(=O)CCOC2 [Compound 765] | 7.63 | 12.08 | 6.55
16 | O=C(NCc1cc2nc(N3CCOc4ccc(C56CC(C5)C6)nc43)ccc2cn1)c1ccc2c(c1)S(=O)(=O)CCOC2 [Compound 766] | 7.77 | 10.47 | 6.75
17 | O=C(NCc1cc2nc(N3CCC(F)(F)c4cccnc43)ccc2cn1)c1ccc2c(c1)S(=O)(=O)CCOC2 [Compound 767] | 7.76 | 11.17 | 6.71
18 | COCCN1CCc2ccc(-c3ccc4cnc(CNC(=O)c5ccc6c(c5)S(=O)(=O)CCOC6)cc4n3)nc2C1 [Compound 772] | 6.40 | 7.26 | 5.54
19 | O=C(NCc1cc2nc(N3CCOc4cc(Cl)cc(F)c43)ccc2cn1)c1cc(F)c2c(c1)S(=O)(=O)CCOC2 [Compound 773] | 7.41 | 30.25 | 5.93

These reach a higher pIC50 (BRM). Values come first.

Row | pIC50 (BRM) | Ratio* (BRM) | pIC50 (BRG-1) | Structure (SMILES)
20 | 7.79 | 49.65 | 6.09 | O=C(NCc1cc2nc(N3CCCc4ccc(C5CCC5)nc43)ccc2cn1)c1ccc2c(c1)S(=O)(=O)CCOC2 [Compound 730]
21 | 7.79 | 20.67 | 6.47 | Cc1nc2c(cc1F)OCCN2c1ccc2cnc(CNC(=O)c3ccc4c(c3)S(=O)(=O)CCOC4)cc2n1 [Compound 770]
22 | 7.82 | 11.62 | 6.75 | O=C(NCc1cc2nc(N3CCN(C4CC4)c4cc(C5CC5)cnc43)ccc2cn1)c1ccc2c(c1)S(=O)(=O)CCOC2 [Compound 756]
23 | 7.85 | 14.28 | 6.69 | O=C(NCc1cc2nc(N3CCOc4cc(C5CCC5)cnc43)ccc2cn1)c1ccc2c(c1)S(=O)(=O)CCOC2 [Compound 753]
24 | 7.88 | 32.33 | 6.37 | C[C@H]1COCc2ccc(C(=O)NCc3cc4nc(N5CCOc6cc(F)cnc65)ccc4cn3)cc2S1(=O)=O [Compound 738]
25 | 7.90 | 17.37 | 6.66 | O=C(NCc1cc2nc(N3CCOc4cc(C5CC5)ncc43)ccc2cn1)c1ccc2c(c1)S(=O)(=O)CCOC2 [Compound 739]
26 | 7.90 | 16.64 | 6.68 | Cc1ccc2c(c1)OCCN2c1ccc2cnc(CNC(=O)c3cnc4c(c3)S(=O)(=O)[C@@H](C)COC4)cc2n1 [Compound 749]
27 | 7.91 | 2.42 | 7.53 | Cc1cc(C(=O)NCc2cc3cc(-c4cccc(N5C[C@@H](C)O[C@@H](C)C5)n4)ccc3cn2)cc2c1COCCS2(=O)=O [Compound 728]
28 | 7.92 | 12.75 | 6.81 | Cc1cnc2c(c1)N(C1CC1)CCN2c1ccc2cnc(CNC(=O)c3ccc4c(c3)S(=O)(=O)CCOC4)cc2n1 [Compound 748]
29 | 7.97 | 11.76 | 6.90 | COc1cc2c(cn1)CCCN2c1ccc2cnc(CNC(=O)c3ccc4c(c3)S(=O)(=O)CCOC4)cc2n1 [Compound 768]
30 | 7.98 | 16.35 | 6.76 | COc1cc(C2CC2)nc2c1CCCN2c1ccc2cnc(CNC(=O)c3ccc4c(c3)S(=O)(=O)CCOC4)cc2n1 [Compound 771]
31 | 7.98 | 21.91 | 6.64 | O=C(NCc1cc2nc(N3CCOc4cc(F)cnc43)ccc2cn1)c1ccc2c(c1)S(=O)(=O)CCOC2 [Compound 737]
32 | 8.02 | 16.66 | 6.80 | Cc1cc(F)c2c(c1)OCCN2c1ccc2cnc(CNC(=O)c3ccc4c(c3)S(=O)(=O)CCOC4)cc2n1 [Compound 764]
33 | 8.03 | 8.96 | 7.07 | COc1cccc2c1CCCN2c1ccc2cnc(CNC(=O)c3cnc4c(c3)S(=O)(=O)[C@@H](C)COC4)cc2n1 [Compound 733]
34 | 8.03 | 9.97 | 7.03 | COc1cc(C)nc2c1CCCN2c1ccc2cnc(CNC(=O)c3ccc4c(c3)S(=O)(=O)CCOC4)cc2n1 [Compound 732]
35 | 8.06 | 13.42 | 6.93 | O=C(NCc1cc2nc(N3CCCc4ccc(OCC5CCCO5)cc43)ccc2cn1)c1ccc2c(c1)S(=O)(=O)CCOC2 (stereo not drawn) [Compound 747]
36 | 8.06 | 7.05 | 7.21 | O=C(NCc1cc2nc(N3CCOc4ccc(C5CC5)c(F)c43)ccc2cn1)c1ccc2c(c1)S(=O)(=O)CCOC2 [Compound 760]
37 | 8.06 | 7.77 | 7.17 | COc1cncc2c1CCCN2c1ccc2cnc(CNC(=O)c3ccc4c(c3)S(=O)(=O)CCOC4)cc2n1 [Compound 761]
38 | 8.08 | 3.16 | 7.58 | C[C@@H]1CN(c2cccc(-c3ccc4cnc(CNC(=O)c5cnc6c(c5)S(=O)(=O)[C@@H](C)COC6)cc4c3)n2)C[C@H](C)O1 [Compound 769]
39 | 8.09 | 13.49 | 6.96 | O=C(NCc1cc2nc(N3CCCc4ccc(OCC5CCO5)cc43)ccc2cn1)c1ccc2c(c1)S(=O)(=O)CCOC2 (stereo not drawn) [Compound 735]
40 | 8.15 | 17.47 | 6.91 | O=C(NCc1cc2nc(N3CCOc4cnc(C5CC5)cc43)ccc2cn1)c1ccc2c(c1)S(=O)(=O)CCOC2 [Compound 755]
41 | 8.18 | 14.12 | 7.03 | [2H]C1([2H])OC([2H])([2H])[C@H](C)S(=O)(=O)c2cc(C(=O)NCc3cc4nc(N5CCOc6cc(C)cnc65)ccc4cn3)ccc21 [Compound 741]
42 | 8.20 | 13.67 | 7.06 | Cc1cnc2c(c1)C1(CCN2c2ccc3cnc(CNC(=O)c4ccc5c(c4)S(=O)(=O)CCOC5)cc3n2)CC1 [Compound 734]
43 | 8.28 | 9.97 | 7.27 | O=C(NCc1cc2nc(N3CCCc4ccc(OCC5CCOC5)cc43)ccc2cn1)c1ccc2c(c1)S(=O)(=O)CCOC2 (stereo not drawn) [Compound 759]
44 | 8.28 | 8.52 | 7.34 | CN(C)c1cnc2c(c1)OCCN2c1ccc2cnc(CNC(=O)c3ccc4c(c3)S(=O)(=O)CCOC4)cc2n1 [Compound 763]
45 | 8.35 | 6.27 | 7.55 | O=C(NCc1cc2nc(N3CCCc4ccc(OCC5(F)COC5)cc43)ccc2cn1)c1ccc2c(c1)S(=O)(=O)CCOC2 [Compound 745]
46 | 8.40 | 4.62 | 7.74 | COc1cc(F)cc2c1CCCN2c1ccc2cnc(CNC(=O)c3ccc4c(c3)S(=O)(=O)CCOC4)cc2n1 [Compound 750]
